Reference: US20230039917A1, “EXO-AZA SPIRO INHIBITORS OF MENIN-MLL INTERACTION” (Janssen Pharmaceutica NV, priority 2017, published 2023)
Read-outs that look alike come from different tables or passages of the source.

Experiments:
[1] = test system: MOLM14 cells; assay: Proliferation assay B (spheroid assay) MOLM14; format: cell-based, human; settings: confluence at day 8, read-out: (3b) Spheroid assay MOLM14 (IC50(μM)) Assay B
Description: 3b) Proliferation Assay B
(§1) The anti-proliferative effect of menin/MLL protein/protein interaction inhibitor test compounds was assessed in human leukemia cell lines. The cell lines MV-4-11 and MOLM14 harbor MLL translocations and express the MLL fusion proteins MLL-AF4 and MLL-AF9, respectively, as well as the wildtype protein from the second allele. […] K562 was used as a control cell line containing two MLL wildtype alleles in order to exclude compounds that display general cytotoxic effects.
(§2) MV-4-11 and MOLM14 were cultured in RPMI-1640 (Sigma Aldrich) supplemented with 10% fetal bovine serum (HyClone), 2 mM L-glutamine (Sigma Aldrich) and 50 μg/ml gentamycin (Gibco). K562 were propagated in RPMI-1640 (Sigma Aldrich) supplemented with 20% fetal bovine serum (HyClone), 2 mM L-glutamine (Sigma Aldrich) and 50 μg/ml gentamycin (Gibco).
(§3) In order to assess the anti-proliferative effects, 1,500 MV-4-11, 300 MOLM14 cells or 750 K562 cells were seeded in 200 μl media per well in 96-well round bottom, ultra-low attachment plates (Costar, catalogue number 7007). Cell seeding numbers were chosen based on growth curves to ensure linear growth throughout the experiment. Test compounds were added at different concentrations and the DMSO content was normalized to 0.3%. Cells were incubated for 8 d at 37° C. and 5% CO2. Spheroid like growth was measured in real-time by live-cell imaging (IncuCyteZOOM, Essenbio, 4× objective) acquiring images at day 8. Confluence (%) as a measure of spheroid size was determined using an integrated analysis tool.
In order to determine the effect of the test compounds over time, the confluence in each well as a measure of spheroid size, was calculated. Confluence […] at the beginning of the experiment (t=0) was used as baseline for the calculation.
Absolute IC50 values were calculated as percent change in confluence as follows:
LC=Low Control: cells treated with 1 μM of the cytotoxic agent staurosporin
HC=High Control: Mean confluence (%) (DMSO treated cells)
Effect=100−(100*(Sample−LC)/(HC−LC))
To determine the IC50 a curve is fitted to the plot of % Effect vs Log 10 compound concentration using a sigmoidal fit with a variable slope and fixing the maximum to 100% and the minimum to 0%.

[2] = test system: MV-4-11 cells; assay: Proliferation assay A (spheroid assay) MV-4-11; format: cell-based; settings: Homo sapiens, MV4-11, 192 h, 8 d, AUC of confluence against time, absolute IC50, read-out: (3a) Spheroid assay MV-4-11 (IC50(μM)) Assay A
Description: 3a) Proliferation Assay A
as §1, §2
as §3, with “MOLM14” for “MOLM14 cells”, “monitored” for “measured”, “one image every four hours for 8 d.” for “images at day 8.”
In order to determine the cumulative effect of the test compounds over time, the area under the curve (AUC) in a plot of confluence against time was calculated. Confluence at the beginning of the experiment (t=0) was used as baseline for the AUC calculation.
Absolute IC50 values were calculated according to the following procedure:
% Control=(AUC sample/AUC control)*100
AUC control=mean AUC of control values (cells without compound/DMSO as vehicle control)
A non-linear curve fit was applied using the least squares (ordinary) fit method to the plot of % control versus compound concentration. Based on this, the absolute IC50 value (half maximal inhibitory concentration of the test compound causing an anti-proliferative effect of 50% relative to the vehicle control) was calculated.

[3] = target: T1, menin.FITC-MBM1 complex (terbium chelate-labeled menin) (Homo sapiens, UniProt O00255, F410E/T541A); assay: Menin/MLL homogenous time-resolved fluorescence (HTRF) assay; format: binding
T1 construct: Menin (a.a. 1-610-6×his tag) was labeled with terbium cryptate as follows
T1 sequence (O00255 with tags, fused parts or gaps F410E/T541A): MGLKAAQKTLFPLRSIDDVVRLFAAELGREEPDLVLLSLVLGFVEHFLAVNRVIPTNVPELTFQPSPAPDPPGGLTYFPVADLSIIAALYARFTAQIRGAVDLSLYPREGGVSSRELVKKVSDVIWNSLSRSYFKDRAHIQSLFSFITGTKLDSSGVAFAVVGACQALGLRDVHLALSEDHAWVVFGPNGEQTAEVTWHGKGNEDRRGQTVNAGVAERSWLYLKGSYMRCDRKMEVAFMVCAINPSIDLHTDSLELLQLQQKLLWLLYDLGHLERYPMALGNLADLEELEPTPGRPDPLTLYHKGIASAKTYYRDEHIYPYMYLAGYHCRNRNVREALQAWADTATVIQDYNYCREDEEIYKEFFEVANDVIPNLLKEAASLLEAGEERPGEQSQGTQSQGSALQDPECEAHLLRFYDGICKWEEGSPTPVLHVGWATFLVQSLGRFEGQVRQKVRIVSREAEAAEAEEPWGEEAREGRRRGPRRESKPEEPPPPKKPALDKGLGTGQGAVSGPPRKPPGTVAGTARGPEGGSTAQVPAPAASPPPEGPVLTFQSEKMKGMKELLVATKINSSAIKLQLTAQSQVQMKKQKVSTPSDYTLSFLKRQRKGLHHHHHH
Description: 2) Menin/MLL Homogenous Time-Resolved Fluorescence (HTRF) Assay
To an untreated, white 384-well microtiter plate was added 40 nL 200× test compound in DMSO and 4 μL 2× terbium chelate-labeled menin (vide infra for preparation) in assay buffer (40 mM Tris.HCl, pH 7.5, 50 mM NaCl, 1 mM DTT and 0.05% Plutonic F-127). After incubation of test compound and terbium chelate-labeled menin for 5 min at ambient temperature, 4 μL2× FITC-MBM1 peptide (FITC-β-alanine-[…]-NH2) in assay buffer was added, the microtiter plate centrifuged at 1000 rpm for 1 min and the assay mixtures incubated for 15 min at ambient temperature. The relative amount of menin.FITC-MBM1 complex present in an assay mixture is determined by measuring the homogenous time-resolved fluorescence (HTRF) of the terbium/FITC donor/acceptor fluorphore pair using a BMG Pherastar plate reader (ex. 337 nm/terbium em. 490 nm/FITC em. 520 nm) at ambient temperature. The degree of fluorescence resonance energy transfer (the HTRF value) is expressed as the ratio of the fluorescence emission intensities of the FITC and terbium fluorophores (F^em 520 nm/F^em 490 nm). The final concentrations of reagents in the binding assay are 100 pM terbium chelate-labeled menin (location 1) or 600 pM terbium chelate-labeled menin (location 2), 75 nM FITC-MBM1 peptide and 0.5% DMSO in assay buffer. Dose-response titrations of test compounds are conducted using an 11 point, three-fold serial dilution scheme, starting typically at 25 μM (location 1) or starting typically at 10 μM (location 2).
Compound potencies were determined by first calculating % inhibition at each compound concentration according to equation 1:
% inhibition=((HC−LC)−(HTRF^compound−LC))/(HC−LC))*100 (Eqn 1)
Where LC and HC are the HTRF values of the assay in the presence or absence of a saturating concentration of a compound that competes with FITC-MBM1 for binding to menin, and HTRF^compound is the measured HTRF value in the presence of the test compound. HC and LC HTRF values represent an average of at least 16 replicates per plate.
% inhibition=Bottom+(Top−Bottom)/(1+10^((log IC50−log [cmpd])*h)) (Eqn 2)
Where Bottom and Top are the lower and upper asymptotes of the dose-response curve, respectively, IC50 is the concentration of compound that yields 50% inhibition of signal and h is the Hill coefficient.
Preparation of Terbium cryptate labeling of Menin: Menin (a.a. 1-610-6×his tag) was labeled with terbium cryptate as follows. 2 mg of Menin was buffer exchanged into 1× phosphate buffered saline. 16 uM Menin was incubated with 4-fold molar excess NHS-terbium cryptate (Cisbio Bioassays, Bedford, Mass.) for 2 hours at room temperature. The labeled protein was purified away from free label by running the reaction over a Superdex 200 Increase 10/300 GL column at 0.75 ml/min. Peak fractions were collected, aliquoted and frozen at −80° C.

[4] = location 2, read-out: (2) location 2 Menin HTRF assay (IC50 (nM))

**Q.** Which IC50 [1] does the source give for `O=C(c1cnc(NC2CC3(CCN(c4ncnc5sc(CC(F)(F)F)cc45)C3)C2)nc1)N1CCOCC1` (single isomer, unassigned) [Compound 259] here?
**A.** > 3.75 µM

**Q.** `FC(F)(F)Cc1cc2c(N3CC[C@]4(CC[C@H](NCc5ccccc5)C4)C3)ncnc2s1` (single isomer, unassigned) [Compound 4] was tested. Which IC50 [2] did it give?
**A.** 0.5 µM

**Q.** For `CN(C)CCNC(=O)c1ccc(NC2CC3(CCN(c4ncnc5sc(CC(F)(F)F)cc45)C3)C2)cc1` (single isomer, unassigned) [Compound 74], which IC50 ([1]; Homo sapiens, MOLM-14, 192 h) is on record?
**A.** > 3.75 µM

**Q.** How did the IC50 ([1]; Homo sapiens, MOLM-14, 192 h) turn out when `CNC(=O)c1ccc(NC2CC3(CCN(c4ncnc5sc(CC(F)(F)F)cc45)C3)C2)cc1NCCN(C)C` (mixture of isomers) [Compound 239] was run?
**A.** > 3.75 µM

**Q.** How did the IC50 ([1]; Homo sapiens, MOLM-14, 192 h) turn out when `CN1CCN(c2cc(NC3CC4(CCN(c5ncnc6sc(CC(F)(F)F)cc56)C4)C3)ccc2C#N)CC1` (mixture of isomers) [Compound 240] was run?
**A.** 1.14 µM

**Q.** How did the IC50 [3, 4] turn out when `CNS(=O)(=O)c1ccc(NC2CC3(CCN(c4ncnc5sc(CC(F)(F)F)cc45)C3)C2)cc1` (stereo not shown) [Compound 317] was run?
**A.** 143 nM

**Q.** For `CN1CCC(c2cc(NC3CC4(CCN(c5ncnc6sc(CC(F)(F)F)cc56)C4)C3)ccc2C(=O)N2CCOCC2)CC1` (single isomer, unassigned) [Compound 233], which IC50 [1] is on record?
**A.** > 3.75 µM

**Q.** How did the IC50 [3, 4] turn out when `CNC(=O)c1ccc(N[C@@H]2CC[C@]3(CCN(c4ncnc5sc(CC(F)(F)F)cc45)C3)C2)cc1` (racemic) [Compound 136] was run?
**A.** 40.9 nM

**Q.** For `CNC(=O)c1c(F)cc(NC2CC3(CCN(c4ncnc5sc(CC(F)(F)F)cc45)C3)C2)cc1F` (single isomer, unassigned) [Compound 244], which IC50 [1] is on record?
**A.** > 3.75 µM

**Q.** How did the IC50 ([3]; location 1, read-out: (2) location 1 Menin HTRF assay (IC50 (nM))) turn out when `CC(C)CNC1CC2(CCN(c3ncnc4sc(CC(F)(F)F)cc34)C2)C1` (stereo not shown) [Compound 50] was run?
**A.** 95.8 nM

**Q.** What about the IC50 [2] of the same molecule?
**A.** 0.91 µM

**Q.** How did the IC50 [3, 4] turn out when `CNC(=O)c1ccc(NC2CC3(CCN(c4ncnc5sc(CC(F)(F)F)cc45)C3)C2)c(Cl)c1` (single isomer, unassigned) [Compound 69] was run?
**A.** 1.2 nM

**Q.** How did the IC50 [1] turn out when `CNC(=O)c1ccc(NC2CC3(CCN(c4ncnc5sc(CC(F)(F)F)cc45)C3)C2)cc1C1CCN(C)CC1` (single isomer, unassigned) [Compound 231] was run?
**A.** > 3.75 µM

**Q.** For `FC(F)(F)Cc1cc2c(N3CC[C@@]4(CC[C@H](NCc5ccccc5)C4)C3)ncnc2s1` (single isomer, unassigned) [Compound 6], which IC50 [2] is on record?
**A.** 1.12 µM

**Q.** Which IC50 [3, 4] does the source give for `O=S(=O)(NC1CC2(CCN(c3ncnc4sc(CC(F)(F)F)cc34)C2)C1)c1ccccc1` (stereo not shown) [Compound 23] here?
**A.** 1310 nM

**Q.** How did the IC50 [3, 4] turn out when `O=c1[nH]c2ccc(NC3CC4(CCN(c5ncnc6sc(CC(F)(F)F)cc56)C4)C3)cc2[nH]1` (stereo not shown) [Compound 321] was run?
**A.** 91.5 nM

**Q.** For `COC1CCN(C(=O)c2ccc(NC3CC4(CCN(c5ncnc6sc(CC(F)(F)F)cc56)C4)C3)cc2)CC1` (single isomer, unassigned) [Compound 184], which IC50 [1] is on record?
**A.** > 3.75 µM

**Q.** Which IC50 [3, 4] does the source give for `O=c1[nH]c2ccc(CN[C@@H]3CCC4(C3)CN(c3ncnc5sc(CC(F)(F)F)cc35)C4)cc2o1` (single isomer, unassigned) [Compound 55] here?
**A.** 2 nM

**Q.** For `FC(F)(F)Cc1cc2c(N3CC4(CCC(Nc5ccc(-c6cn[nH]c6)cc5)C4)C3)ncnc2s1` (stereo not shown) [Compound 302], which IC50 [3, 4] is on record?
**A.** 50.9 nM

**Q.** How did the IC50 [3, 4] turn out when `Nc1nc(N2CCC3(CC(Nc4ccc5oc(=O)[nH]c5c4)C3)C2)c2cc(CC(F)(F)F)sc2n1` (stereo not shown) [Compound 380] was run?
**A.** 8.7 nM

**Q.** What about the IC50 ([1]; Homo sapiens, MOLM-14, 192 h) of the same molecule?
**A.** > 3.75 µM

**Q.** For `CNC(=O)c1ccc(NC2CC3(CCN(c4ncnc5sc(CC(F)(F)F)cc45)C3)C2)c(Cl)c1` (single isomer, unassigned) [Compound 68], which IC50 ([1]; Homo sapiens, MOLM-14, 192 h) is on record?
**A.** 2.24 µM

**Q.** For `N#Cc1ccc(NC2CC3(CCN(c4ncnc5sc(CC(F)(F)F)cc45)C3)C2)nc1` (single isomer, unassigned) [Compound 174], which IC50 [3, 4] is on record?
**A.** 114 nM

**Q.** `CS(=O)(=O)N1CCN(C(=O)c2ccc(NC3CC4(CCN(c5ncnc6sc(CC(F)(F)F)cc56)C4)C3)cc2)CC1` (single isomer, unassigned) [Compound 179] was tested. Which IC50 [1] did it give?
**A.** > 3.75 µM

**Q.** `CN1CCN(Cc2cc(NC3CC4(CCN(c5ncnc6sc(CC(F)(F)F)cc56)C4)C3)ccc2C#N)CC1` (mixture of isomers) [Compound 225] was tested. Which IC50 ([1]; Homo sapiens, MOLM-14, 192 h) did it give?
**A.** 1.95 µM
